Measured values as given in ChEMBL document CHEMBL4196033, “Potent hydrazone derivatives targeting esophageal cancer cells” (Eur J Med Chem, 2018).
Calls of active or inactive are those of the source. No cut-off for these calls is given here.

Experiments:
ECa-109 cell line [1] = test: Anticlonogenic activity against human EC109 cells after 7 days by crystal violet staining based assay; type: functional, cell-based
ECa-109 cell line [2] = test: Upregulation of p27 protein expression in human EC109 cells at 4 uM after 24 to 48 hrs by Western blot analysis relative to control; type: functional
ECa-109 cell line [3] = test: Upregulation of p27 protein expression in human EC109 cells at 8 uM after 24 to 48 hrs by Western blot analysis relative to control; type: functional
EC9706 [4] = test: Induction of morphological changes in human EC9706 cells assessed as cell rounding after 48 hrs by Hoechst 33342 staining based fluorescence microscopic method; type: functional
ECa-109 cell line [5] = test: Induction of morphological changes in human EC109 cells assessed as chromatin condensation after 48 hrs by Hoechst 33342 staining based fluorescence microscopic method; type: functional, cell-based
ECa-109 cell line [6] = test: Induction of morphological changes in human EC109 cells assessed as apoptotic body formation after 48 hrs by Hoechst 33342 staining based fluorescence microscopic method; type: functional, cell-based
EC9706 [7] = test: Induction of apoptosis in human EC9706 cells assessed as live cells at 2 uM after 48 hrs by Annexin V-FITC/propidium iodide staining based flow cytometry (reference value: 85.5 to 96%); type: functional
EC9706 [8] = test: Induction of apoptosis in human EC9706 cells assessed as early apoptotic cells at 2 uM after 48 hrs by Annexin V-FITC/propidium iodide staining based flow cytometry (reference value: 0.68 to 1.58%); type: functional
EC9706 [9] = test: Induction of apoptosis in human EC9706 cells assessed as late apoptotic cells at 2 uM after 48 hrs by Annexin V-FITC/propidium iodide staining based flow cytometry (reference value: 1.29 to 1.99%); type: functional
EC9706 [10] = test: Induction of apoptosis in human EC9706 cells assessed as necrotic cells at 4 uM after 48 hrs by Annexin V-FITC/propidium iodide staining based flow cytometry (reference value: 1.1 to 1.31%); type: functional
EC9706 [11] = test: Induction of apoptosis in human EC9706 cells assessed as live cells at 8 uM after 48 hrs by Annexin V-FITC/propidium iodide staining based flow cytometry (reference value: 85.5 to 96%); type: functional
EC9706 [12] = test: Induction of apoptosis in human EC9706 cells assessed as necrotic cells at 8 uM after 48 hrs by Annexin V-FITC/propidium iodide staining based flow cytometry (reference value: 1.1 to 1.31%); type: functional
ECa-109 cell line [13] = test: Induction of apoptosis in human EC109 cells assessed as early apoptotic cells at 8 uM after 48 hrs by Annexin V-FITC/propidium iodide staining based flow cytometry (reference value: 0.43 to 1.15%); type: functional
ECa-109 cell line [14] = test: Induction of apoptosis in human EC109 cells assessed as necrotic cells at 8 uM after 48 hrs by Annexin V-FITC/propidium iodide staining based flow cytometry (reference value: 0.74 to 1.18%); type: functional
EC9706 [15] = test: Induction of apoptosis in human EC9706 cells assessed as early apoptotic cells at 4 uM after 48 hrs in presence of caspase inhibitor Z-VAD-FMK by Annexin V-FITC/propidium iodide staining based flow cytometry (reference value: 0.33%); type: functional
EC9706 [16] = test: Induction of apoptosis in human EC9706 cells assessed as live cells at 8 uM after 48 hrs in presence of caspase inhibitor Z-VAD-FMK by Annexin V-FITC/propidium iodide staining based flow cytometry (reference value: 95.7%); type: functional
EC9706 [17] = test: Induction of apoptosis in human EC9706 cells assessed as early apoptotic cells at 8 uM after 48 hrs in presence of caspase inhibitor Z-VAD-FMK by Annexin V-FITC/propidium iodide staining based flow cytometry (reference value: 0.33%); type: functional
EC9706 [18] = test: Induction of apoptosis in human EC9706 cells assessed as necrotic cells at 8 uM after 48 hrs in presence of caspase inhibitor Z-VAD-FMK by Annexin V-FITC/propidium iodide staining based flow cytometry (reference value: 1.2%); type: functional
EC9706 [19] = test: Induction of ROS generation in human EC9706 cells at 4 uM after 24 hrs by DCFH-DA staining based flow cytometry relative to control; type: functional
EC9706 [20] = test: Induction of ROS generation in human EC9706 cells at 8 uM after 24 hrs by DCFH-DA staining based flow cytometry relative to control; type: functional
ECa-109 cell line [21] = test: Induction of ROS generation in human EC109 cells at 2 uM after 24 hrs by DCFH-DA staining based flow cytometry relative to control; type: functional
ECa-109 cell line [22] = test: Induction of ROS generation in human EC109 cells at 8 uM after 24 hrs by DCFH-DA staining based flow cytometry relative to control; type: functional
EC9706 [23] = test: Induction of ROS generation in human EC9706 cells at 2 to 4 uM after 24 hrs in presence of anti-oxidant NAC by DCFH-DA staining based flow cytometry; type: functional, cell-based
ECa-109 cell line [24] = test: Induction of ROS generation in human EC109 cells at 2 to 4 uM after 24 hrs in presence of anti-oxidant NAC by DCFH-DA staining based flow cytometry; type: functional, cell-based
EC9706 [25] = test: Induction of apoptosis in human EC9706 cells assessed as increase in cleaved PARP protein expression after 48 hrs by Western blot analysis; type: functional, cell-based
ECa-109 cell line [26] = test: Induction of apoptosis in human EC109 cells assessed as increase in cleaved caspase-3 protein expression after 48 hrs by Western blot analysis; type: functional, cell-based
ECa-109 cell line [27] = test: Induction of apoptosis in human EC109 cells assessed as decrease in Bcl2 protein expression after 48 hrs by Western blot analysis; type: functional, cell-based
ECa-109 cell line [28] = test: Induction of apoptosis in human EC109 cells assessed as increase in tBid protein expression at 2 to 8 uM after 48 hrs by Western blot analysis; type: functional, cell-based
EC9706 [29] = test: Induction of apoptosis in human EC9706 cells assessed as increase in tBid protein expression at 2 to 8 uM after 48 hrs by Western blot analysis; type: functional, cell-based
EC9706 [30] = test: Induction of apoptosis in human EC9706 cells assessed as decrease in Bid protein expression at 2 to 8 uM after 48 hrs by Western blot analysis; type: functional, cell-based
EC9706 [31] = test: Effect on Prxs-2 protein expression in human EC9706 cells at 2 to 8 uM after 48 hrs by Western blot analysis; type: functional, cell-based
EC9706 [32] = test: Effect on Prxs-4 protein expression in human EC9706 cells at 2 to 8 uM after 48 hrs by Western blot analysis; type: functional, cell-based
ECa-109 cell line [33] = test: Effect on Prxs-3 protein expression in human EC109 cells at 2 to 8 uM after 48 hrs by Western blot analysis; type: functional, cell-based
ECa-109 cell line [34] = test: Effect on Prxs-4 protein expression in human EC109 cells at 2 to 8 uM after 48 hrs by Western blot analysis; type: functional, cell-based
Mus musculus [35] = test: Acute toxicity in C57BL/6 mouse assessed as change in physical phenotype at 2 g/kg, ig measured for 2 weeks; type: organism-based; settings: in vivo, po, 2000 mg/kg, 336 h
Mus musculus [36] = test: Acute toxicity in C57BL/6 mouse assessed as histopathological changes in liver at 2 g/kg, ig measured for 2 weeks by hematoxylin and eosin staining based microscopic method; type: organism-based; settings: in vivo, po, 2000 mg/kg, 336 h
Mus musculus [37] = test: Acute toxicity in C57BL/6 mouse assessed as histopathological changes in lung at 2 g/kg, ig measured for 2 weeks by hematoxylin and eosin staining based microscopic method; type: organism-based; settings: in vivo, po, 2000 mg/kg, 336 h

COc1ccc(/C=N/NC(=O)c2cccc(S(=O)(=O)N3CCOCC3)c2)c(O)c1
Activity (ECa-109 cell line [1]): Active
fold change (FC) (ECa-109 cell line [2]): 1.4
fold change (FC) (ECa-109 cell line [3]): 1.9
Activity (EC9706 [4]): Dose-dependent effect
Activity (ECa-109 cell line [5]): Dose-dependent effect
Activity (ECa-109 cell line [6]): Dose-dependent effect
Activity (EC9706 [7]): 82.8%
Activity (EC9706 [8]): 1.56%
Activity (EC9706 [9]): 6.25%
Activity (EC9706 [10]): 0.48 - 16.1%
Activity (EC9706 [11]): 29.9 - 61.1%
Activity (EC9706 [12]): 10.1 - 10.2%
Activity (ECa-109 cell line [13]): 18.7 - 25%
Activity (ECa-109 cell line [14]): 2.23 - 13%
Activity (EC9706 [15]): 13.3%
Activity (EC9706 [16]): 31%
Activity (EC9706 [17]): 16.4%
Activity (EC9706 [18]): 17%
fold change (FC) (EC9706 [19]): 1.45
fold change (FC) (EC9706 [20]): 1.95
fold change (FC) (ECa-109 cell line [21]): 1.81
fold change (FC) (ECa-109 cell line [22]): 2.21
Activity (EC9706 [23]): inactive
Activity (ECa-109 cell line [24]): inactive
Activity (EC9706 [25]): Dose-dependent effect
Activity (ECa-109 cell line [26]): Dose-dependent effect
Activity (ECa-109 cell line [27]): Dose-dependent effect
Activity (ECa-109 cell line [28]): Active
Activity (EC9706 [29]): Active
Activity (EC9706 [30]): Active
Activity (EC9706 [31]): Active
Activity (EC9706 [32]): Active
Activity (ECa-109 cell line [33]): Active
Activity (ECa-109 cell line [34]): Active
Activity (Mus musculus [35]): Non-Toxic
Activity (Mus musculus [36]): Non-Toxic
Activity (Mus musculus [37]): Non-Toxic
